Measured values published in patent publication US5214191A, “Oxidant sensitive and insensitive aromatic esters as inhibitors of human neutrophil elastase” (Cortech, Inc., priority 1990, dated 1993).
≈ marks a conversion by molar mass, not a printed value. Like-named read-outs stand apart in the source and are kept apart here.

Experiments:
[1] = biological target: alpha-chymotrypsin (α-CH) (Bos taurus, UniProt P00766); assay: Specificity determination, alpha-chymotrypsin, N-succinyl-ala-ala-pro-leu-pNA substrate; type: biochemical; settings: ratio of I50's (α-CH/HNE)
Source text: (§1) Representative compounds according to the invention have been compared with a compound (Compound A) typifying the compounds described in U.S. Pat. […] The comparisons were directed towards potency (represented by the I50 's for human neutrophil elastase (HNE), porcine pancreatic elastase (PPE) and alpha-chymotrypsin (α-CH)), specificity (represented by the ratios of the I50 's (PPE/HNE and α-CH/HNE)) and the ability to inhibit the digestion of extracellular matrix by activated intact human neutrophils (expressed as a fraction of control) of the compounds listed. The following results were obtained (TABLE IV): Specificity Determination Reagents: 2) α-Chymotrypsin (α-CH) 1 mg/mL in 0.01M sodium acetate, pH 5.5. An aliquot of this stock solution is diluted 1:85 in 0.01M sodium acetate, 20% DMSO, 10 mM CaCl2, pH 5.5, 0.005% triton X-100 detergent. 4) α-CH substrate: N-succinyl-[…] 20 mM stock in DMSO. Inhibitor, substrate buffer: 0.1M tris-HCl, 0.01M CaCl2, 0.005% triton X-100, 20% DMSO, pH 7.7.

[2] = biological target: T1, human neutrophil elastase (HNE) (Homo sapiens, UniProt P08246); assay: Potency (I50 determination) against human neutrophil elastase, N-methoxysuccinyl-ala-ala-pro-val-pNA substrate; type: biochemical; settings: for potency relative to Compound A: in words, versus Compound A (pivaloyl group)
T1 sequence (P08246 30-267): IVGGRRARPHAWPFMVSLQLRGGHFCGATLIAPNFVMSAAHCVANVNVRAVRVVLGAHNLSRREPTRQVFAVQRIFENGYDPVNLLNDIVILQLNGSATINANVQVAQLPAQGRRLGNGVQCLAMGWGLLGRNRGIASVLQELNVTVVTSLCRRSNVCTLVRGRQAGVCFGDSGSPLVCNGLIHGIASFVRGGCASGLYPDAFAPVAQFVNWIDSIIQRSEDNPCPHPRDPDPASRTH
Experimental: Potency (I50 Determination)
A) 0.075M sodium phosphate, 20% dimethyl sulfoxide (DMSO), pH 7.7=substrateand inhibitor buffer
B) 0.075M sodium phosphate no DMSO, pH 7.7=inhibitor buffer
C) 10 mM human neutrophil elastase (HNE) substrate =N-methoxysuccinyl-ala-ala-pro-val-pNA in DMSO
D) 0.01M sodium acetate, 20% DMSO, pH 5.5=enzyme buffer (dilution)
E) 0.01M sodium acetate, pH 5.5=enzyme buffer (storage)
F) HNE (1 mg) dissolved in 1 mL of reagent E for storage at -20° C.
Make a 10 mM stock of the inhibitor in DMSO. Dilute an aliquot (10 μL) up to 1.0 mL in reagent A (100 μM). Serially dilute 100 μL of the 100 μM stock to 10.0, 1.0, 0.1, 0.01 μM in reagent A. Apply 100 μL of the diluted material to the wells of a 96-well plate. Dilute an aliquot of reagent F 1:150 in reagent D, apply 50 μL aliquots to the indicated wells and incubate for 7 minutes at room temperature.
The HNE substrate solution is made by taking 100 μL of reagent C into 500 μL of reagent A and 400 μL of reagent B. After the 7 minutes of incubation, the substrate (50 μL) is applied to each well. The HNE catalyzed reaction is then monitored spectrophotometrically at 405 nm using an ELISA plate reader machine (UVMAX, Molecular Devices) which processes the raw data with an on-board kinetics program. The enzyme activity is plotted against different inhibitor concentrations and the I50 value is determined by using a curve fitting software program. Once the "screening" I50 has been approximated, a more precise I50 value can be obtained by examination of inhibitor concentrations around this value.

[3] = biological target: porcine pancreatic elastase (PPE) (Sus scrofa, UniProt P00772); assay: Specificity determination, porcine pancreatic elastase, N-succinyl-ala-ala-ala-pNA substrate; type: biochemical; settings: ratio of I50's (PPE/HNE)
Source text: as §1, with “1) Porcine Pancreatic Elastase (PPE)” for “2) α-Chymotrypsin (α-CH)”, “1:20” for “1:85”, “5.5. 3) PPE” for “5.5, 0.005% triton X-100 detergent. 4) α-CH”

[4] = PBS solubility; type: physicochemical; settings: aqueous buffer
[5] = Table IV, human neutrophil elastase, read-out: HNE I50
[6] = Table III, series with varied R4, read-out: I50

Sequence of porcine pancreatic elastase (PPE) (P00772 27-266): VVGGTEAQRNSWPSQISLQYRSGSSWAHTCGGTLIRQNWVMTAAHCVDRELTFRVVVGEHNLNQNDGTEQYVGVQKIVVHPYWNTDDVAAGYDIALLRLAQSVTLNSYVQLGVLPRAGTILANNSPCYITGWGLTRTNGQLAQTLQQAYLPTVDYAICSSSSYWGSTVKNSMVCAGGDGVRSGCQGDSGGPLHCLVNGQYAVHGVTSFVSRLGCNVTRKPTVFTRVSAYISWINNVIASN

Row | SMILES | α-Chymotrypsin (I50)/HNE(I50) [1] | IC50 [2, 5] [µM] | PPE (I50)/HNE (I50) [3] | solubility [4] [mg/mL] | IC50 [2, 6] [µM] | potency relative to Compound A [2]
1 | CCC(C(=O)Oc1ccc(S(C)(=O)=O)cc1)c1ccc(OC)cc1 (stereo not drawn) [Compound 37, 4-Methylsulfonylphenyl 2-(4'-Methoxyphenyl)butyrate] | 106.2 | 0.031 | 38.6 | – | – | improve potency relative to a compound bearing a simple pivaloyl group
2 | CC(C)(C)C(=O)Oc1ccc(S(C)(=O)=O)cc1 [Compound A, reference compound] | 146.10 | 0.129 | 18.84 | – | – | –
3 | CCC(C(=O)Oc1ccc(S(C)(=O)=O)cc1)c1ccccc1 (stereo not drawn) [S(O)2 CH3] | – | – | – | 0.01 (≈ 31.4 µM) | 0.1 | –
4 | CCC(C(=O)Oc1ccc([S+]([O-])CC(C)(C)C(=O)O)cc1)c1ccccc1 (stereo not drawn) [S(O)CH2 C(CH3)2 CO2 H] | – | – | – | ≥ 2 | 0.357 | –
5 | CCC(C(=O)Oc1ccc([S+](C)[O-])cc1)c1ccccc1 (stereo not drawn) [S(O)CH3] | – | – | – | 0.6 (≈ 1980 µM) | 0.6 | –
6 | CCC(C(=O)Oc1ccc(SC)cc1)c1ccccc1 (stereo not drawn) [SCH3] | – | – | – | 0.01 (≈ 34.9 µM) | 9 | –

Further lines, with some results ahead:

Row | α-Chymotrypsin (I50)/HNE(I50) [1] | IC50 [2, 5] [µM] | PPE (I50)/HNE (I50) [3] | solubility [4] [mg/mL] | IC50 [2, 6] [µM] | SMILES | potency relative to Compound A [2]
7 | 176.0 | 0.025 | 129.6 | – | – | CCC(C(=O)Oc1ccc(S(C)(=O)=O)cc1)c1ccccc1 (stereo not drawn) [Compound 3] | improve potency relative to a compound bearing a simple pivaloyl group
8 | 131.8 | 0.055 | 29.1 | – | – | CCC(C(=O)Oc1ccc(S(C)(=O)=O)cc1)c1ccc2cc(OC)ccc2c1 (stereo not drawn) [Compound 384] | improve potency relative to a compound bearing a simple pivaloyl group
9 | – | – | – | ≥ 2 | 0.141 | CCC(C(=O)Oc1ccc(S(=O)(=O)CC(C)(C)C(=O)O)cc1)c1ccccc1 (stereo not drawn) [S(O2)CH2 C(CH3)2 CO2 H] | –
10 | – | – | – | ≥ 2 | 0.892 | CCC(C(=O)Oc1ccc(SCC(C)(C)C(=O)O)cc1)c1ccccc1 (stereo not drawn) [SCH2 C(CH3)2 CO2 H] | –
